Test results published in US9796674B2, “Benzyl urea derivatives for activating TGF-beta signaling” (THE BOARD OF TRUSTEES OF THE LELAND STANFORD JUNIOR …, priority 2013, dated 2017).
Entries after “also recorded” stand apart in the source; their conditions may differ.

Columns and labels:
[1] = Dose escalation and 14-day MTD study in female FVB mice; format: in vivo; details: female, FVB, mouse, in vivo; daily oral dose for 14 days
Description: In Vivo Range Finding Toxicity Studies in Mice and Rats: Dose escalation and 14-day MTD study of SRI-011381 and SRI-011382 in female FVB mice: The objectives of this study were to determine the maximum tolerated dose (MTD) and a no observable adverse effect level (NOAEL) in female FVB mice following a daily oral dose administration for 14 consecutive days. An initial dose escalation was performed with intraperitoneal (ip), oral (po), and intravenous (iv) dose routes for a single-dose MTD of SRI-011381 and SRI-011382.
Subsequently, three dose levels (10, 30, and 75 mg/kg) and a vehicle control group were used in the 14-day oral dose administration to determine the MTD and NOAEL based on changes in bodyweight, clinical observations, serum chemistry, hematology and gross organ physiology in 5 female mice per treatment group.
The objectives of this study were to determine maximum tolerated dose (MTD) and a no observable adverse effect level (NOAEL) in female FVB mice following a daily oral dose administration for 14 consecutive days. After a dose escalation single dose study with doses up to 400 mg/kg, three dose levels were selected for the repeat dose study, 10, 30 and 75 mg/kg, administered […]. The MTD is the maximum dose administered that results in less than 10% body weight loss compared to controls and no other dose limiting adverse effects (e.g. clinical pathology).

[2] = test system: APP751LonSwe transgenic mice; test: Repeat dose range finding toxicity study in APP751LonSwe transgenic mice; format: in vivo; details: oral 10, 30, 60, or 100 mg/kg 3 times a week for 2 weeks
Description: (§1) Determination of the maximum tolerated dose of SRI-011381 in APP transgenic mice on a C57Bl/6 genetic background: A repeat dose range finding toxicity study was also performed in APP751^LonSwe transgenic mice to select doses for evaluation in the efficacy study. Compound SRI-011381 was dissolved in a vehicle containing 15% solutol and 85% water. The formulated compound was administered orally to APP751^LonSwe transgenic mice at 0 (vehicle only), 10, 30, 60, or 100 mg/kg of body weight 3 times a week for 2 weeks (this is the regimen intended to be used for the preclinical treatment study in these mice). Five mice (3 male and 2 female) were used for each dosage group. The starting ages of the mice ranged from 4.4 to 6.1 months. Serum and whole blood samples were collected at the end of the study and subjected to clinical chemistry and hematology analysis.

[3] = as above; format: in vivo; details: both sexes, APP751LonSwe transgenic, C57Bl/6 background, mouse, in vivo; oral, 3 times per week for 2 weeks; read-out: maximum tolerated dose (MTD)
Description: as §1

[4] = Cytotoxicity in VERO cells; format: cell-based; details: African green monkey, read-out: LC50 (the source's name)
Description: In Vitro Cytotoxicity: The cytotoxicity of SRI-011381 was determined in primary rat hepatocytes and in VERO cells.
Cytotoxicity: In vitro cytotoxicity assays are used to estimate the relative toxicity of test compounds, e.g. a set of chemical analogs prior to efficacy screening. To estimate “basal” toxicity, a cell line such as VERO cells are typically used. Additional factors including drug metabolism can alter the relative toxicity of a compound in vivo. Primary cultures from liver (either laboratory species or human) can be used to assess the relative toxicity of compounds where metabolism may be a factor.

[5] = PAMPA double sink permeability assay; format: in vitro ADME; details: pH 7.4, 6.2, 5.0, read-out: sum of the permeability coefficients (Pe)
Description: (§2) Permeability Assays: PAMPA screens, both for absorption from the gut and through blood brain barrier, were used as a first tier screen for this program. SRI-011381 was evaluated in the double sink assay format and the sum of the permeability coefficients at three pH values (7.4, 6.2, 5.0) was calculated (Pe) to be 781×10^−6 cm/s, which is consistent with an orally available compound.
(§3) Permeability PAMPA: The PAMPA assay was used to predict oral bioavailability of compounds. The PAMPA determines the permeability of compounds across a biological membrane using a synthetic lipid membrane and detection by UV absorbance. […] The PAMPA-BBB assay was performed, to predict permeability to the blood brain barrier, as an aqueous assay and as a co-solvent assay. In this assay the composition of the lipid membrane included brain-derived lipids, mimicking the BBB membrane.

GFAP-luc mice = test: Kainic acid lesion in GFAP-luc mice, bioluminescence; format: in vivo, mouse; details: kainic acid 20 mg/kg
Description: FIGS. 5A-5B show GFAP-luc mice (2-month-old) lesioned with kainic acid (20 mg/kg). Bioluminescence was recorded longitudinally at indicated time points in each mouse. Representative images showing increased bioluminescence signals over the brain after kainic acid injury (left panel) and the reduction by SRI-011381 (381) treatment (right panel) (FIG. 5A). Bioluminescence is expressed as fold induction over baseline, which was measured 1 day before kainic acid administration for each mouse (FIG. 5B). Bars are mean±SEM (n=4-7 mice). The mice were sacrificed 5 days later. Brains were removed, fixed with paraformaldehyde, sectioned and stained with cresyl violet, or immunohistochemical methods. […] Bars are mean±SEM (n=4-7 mice/group) and the asterisk signifies P<0.05 by unpaired t test.

[6] = PAMPA-BBB permeability assay; format: in vitro ADME
Description: as §2, §3

[7] = test system: mouse J774A.1 macrophages; test: Fibrillar Aβ clearance by J774A.1 macrophages; format: cell-based; details: 24 h, 2, 5, or 10 μM
Description: SRI-011381 promotes Aβ clearance in cell culture: TGF-β1 promotes Aβ clearance in a microglia cell line. To test whether SRI-011381 has similar properties, mouse J774A.1 macrophages and human macrophages differentiated from THP-1 monocytic cell lines were treated with fibrillar Aβ in the absence or presence of compound (2, 5, or 10 μM) for 24 h. Conditioned medium was harvested and the remaining Aβ that was not phagocytosed by macrophages was quantified by Aβ ELISA.
FIGS. 4A and 4B present data from experiments in which human macrophages differentiated from THP-1 monocytic cell lines and mouse J774A.1 macrophages were incubated with fibrillar Aβ in the absence or presence of compound (2 or 5 μM) for 24 h. Conditioned medium was harvested and the remaining Aβ was quantified by Aβ ELISA. The collected medium (FIGS. 4C-4D) was added to N2A-APP-Swe cells (mouse Neuro-2A neuroblastoma cells stably expressing Swedish APP695) and incubated for 24 h. Neurotoxicity was quantified by an MTS Assay.
Mouse J774A.1 macrophages and human macrophages that were differentiated from THP-1 monocytic cell lines were treated with fibrillar Aβ42 in the absence or presence of SRI-011382 or its derivative compounds (2, 5, or 10 μM) for 24 h. Conditioned medium was harvested and the remaining Aβ42 that was not phagocytosed by macrophages was quantified by Aβ42 ELISA kit (Invitrogen). […]

O=C(NC1CCCCC1)N(Cc1ccccc1)CC1CCNCC1 [SRI-011381, 1-Benzyl-3-cyclohexyl-1-(piperidin-4-ylmethyl)urea]
NOAEL at 14 days [1]: < 30 mg/kg | body weight [2]: no significant differences in body weight | clinical chemistry or hematology parameters [2]: no statistically significant changes | MTD at 2 weeks [3]: > 100 mg/kg | CC50 [4]: 167 µM | Papp [5]: 781 ×10⁻⁶ cm/s | bioluminescence signals over the brain after kainic acid injury (GFAP-luc mice): reduction | PAMPA-BBB Pe [6]: 4.2±2.2 ×10^−6 cm/s | Papp ([6]; PAMPA, read-out: PAMPA-BBB Pe): 4.2 ± 2.2 ×10⁻⁶ cm/s | fibrillar Aβ clearance [7]: promoted fibrillar Aβ clearance; also recorded: promoted fibrillar Aβ42 clearance | fibrillar Aβ clearance ([7]; listed as SRI-11381): promote fibrillar Aβ42 clearance
